What all share (type): functional, cell-based
A short description of test [1]: Cytotoxicity against human HL60 cells after 48 hrs by MTT assay. The conditions noted are these: HL-60, 48 h. (In general: Tetrazolium dyes change colour on reduction, which living cells bring about.)
For test [2], the system named is A549. Put plainly: Cytotoxicity against human A549 cells after 48 hrs by MTT assay. As to conditions: A549, 48 h.
Test [3] is described as follows: Cytotoxicity against human HCT116 cells after 48 hrs by MTT assay. The conditions noted are these: HCT-116, 48 h.
Test [4] is described as follows: Cytotoxicity against human PC3 cells after 48 hrs by MTT assay. The conditions noted are these: PC-3, 48 h.
The test system of test [5] is COLO 205. The experiment in a line: Cytotoxicity against human COLO205 cells after 48 hrs by MTT assay. The conditions noted are these: COLO 205, 48 h.

Each structure is given as a SMILES string.

What is called IC50 is the concentration that inhibits the measured activity by half. The low end stands for greater potency, the high end for weaker potency. In the case of `N#Cc1ccccc1-n1cc(COc2ccc3oc(=O)ccc3c2)nn1`, the IC50 in test [1] was found to be 52.1 µM; in test [2], 12.6 µM.
`N#CCc1ccc(-n2cc(COc3ccc4oc(=O)ccc4c3)nn2)cc1` yielded a half-inhibitory concentration (IC50) in test [2] of 29.2 µM.
Regarding `O=c1ccc2cc(OCc3cn(-c4cccc([N+](=O)[O-])c4)nn3)ccc2o1`, the IC50 in test [3] worked out at 26.9 µM; in test [4] it was 49.3 µM; in test [1], 20.5 µM; in test [5] it was 36.6 µM.
With `O=c1ccc2cc(O)ccc2o1` [6-HYDROXYCOUMARIN], the concentration for half-maximal inhibition (IC50) in test [3] amounted to 46.2 µM; in test [1], 35 µM; in test [5], 38.7 µM.
As for `C#CCOc1ccc2oc(=O)ccc2c1`, 24 µM corresponded to half-maximal inhibition in test [2] (IC50).
For the compound `O=c1ccc2cc(OCc3cn(-c4ccccc4)nn3)ccc2o1`, the IC50 in test [3] was determined as 51.5 µM; in test [1], 41.6 µM; in test [5] it was 48.8 µM.
As for `O=c1ccc2cc(OCc3cn(-c4ccccc4[N+](=O)[O-])nn3)ccc2o1`, the half-inhibitory concentration (IC50) in test [3] was found to be 55.8 µM; in test [1], 44.6 µM; in test [2], 10.2 µM.
As to `N#Cc1ccccc1-c1cc(COc2ccc3oc(=O)ccc3c2)on1`, the IC50 was 13.6 µM in test [4] and 55.8 µM in test [2].
With `Cn1c(=O)n(-c2ccc(C(C)(C)C#N)cc2)c2c3cc(-c4cnc5ccccc5c4)ccc3ncc21` [DACTOLISIB], the IC50 in test [3] came out at 0.044 µM; in test [4], 12.3 µM; in test [1] it was 12.4 µM; in test [2] it was 6.5 µM; in test [5] it was 0.085 µM.
Turning to `O=c1ccc2cc(OCc3cc(-c4cccc5ccccc45)no3)ccc2o1`, the 50% inhibitory concentration (IC50) came out at 51.5 µM in test [3], 41.6 µM in test [1] and 47.2 µM in test [5].
In test [1], `CC(=O)Nc1ccc(-n2cc(COc3ccc4oc(=O)ccc4c3)nn2)cc1` returned a 50% inhibitory concentration (IC50) of 40.4 µM.
For `O=c1ccc2cc(OCc3cc(-c4ccc([N+](=O)[O-])cc4)no3)ccc2o1`, the figures for the half-maximal inhibitory concentration (IC50) in test [3], in test [1] and in test [5] were 42.2 µM, 55.8 µM and 47.8 µM, respectively.
For `COc1ccccc1-n1cc(COc2ccc3oc(=O)ccc3c2)nn1`, the IC50 in test [1] is 55.2 µM; in test [2], 18.7 µM.
On to `O=c1ccc2cc(OCc3cn(-c4ccc(Cl)c(Cl)c4)nn3)ccc2o1`, for which the IC50 in test [3] is 57.3 µM; in test [1] it was 47.8 µM.
Take `O=c1ccc2cc(OCc3cn(-c4ccc([N+](=O)[O-])cc4)nn3)ccc2o1`: the IC50 in test [3] was 44.3 µM; in test [1], 46 µM; in test [2] it was 33.6 µM; in test [5] it was 48.7 µM.
`O=c1ccc2cc(OCc3cc(-c4ccccc4)no3)ccc2o1`: the results for the IC50 in test [4] and in test [1] were 53.2 µM and 43.3 µM, respectively.
In test [4], `COc1ccccc1-c1cc(COc2ccc3oc(=O)ccc3c2)on1` yielded an IC50 of 22.4 µM.
The same measure, in the same setting: next, `O=c1ccc2cc(OCc3cc(-c4ccccc4Cl)no3)ccc2o1`: 18.2 µM.
Compound `O=c1ccc2cc(OCc3cn(-c4cccc(CO)c4)nn3)ccc2o1` registered an IC50 in test [2] of 35.1 µM.
`O=c1ccc2cc(OCc3cc(-c4ccccc4[N+](=O)[O-])no3)ccc2o1` gave an IC50 in test [4] of 8.2 µM.
For `O=c1ccc2cc(OCc3cc(-c4ccc(Cl)cc4)no3)ccc2o1`, the results for the IC50 in test [3], in test [1] and in test [5] were 55.8 µM, 44.6 µM and 44.5 µM, respectively.
On the same counts, the results for `O=c1ccc2cc(OCc3cc(-c4cccc(Cl)c4)no3)ccc2o1` are 42.1 µM, 50.6 µM and 32.5 µM.
For `COc1ccc(-n2cc(COc3ccc4oc(=O)ccc4c3)nn2)cc1`, the IC50 in test [3] amounted to 37.8 µM; in test [1], 46.4 µM; in test [2], 46.8 µM; in test [5] it was 32.8 µM.
The matching figures for `O=c1ccc2cc(OCc3cc(-c4cccc([N+](=O)[O-])c4)no3)ccc2o1`: 48.2 µM, 44.4 µM, 36.2 µM and 48.3 µM.
Take `O=c1ccc2cc(OCc3cc(-c4ccc5ccccc5c4)no3)ccc2o1`: the results for the concentration for half-maximal inhibition (IC50) in test [3], in test [1] and in test [5] were 55.9 µM, 55.7 µM and 48.7 µM, respectively.
In test [2], `O=c1ccc2cc(OCc3cn(-c4ccccc4Cl)nn3)ccc2o1` displayed an IC50 of 17.1 µM.

Values taken from ChEMBL document CHEMBL3352695, “Synthesis and biological evaluation of novel isoxazoles and triazoles linked 6-hydroxycoumarin as potent cytotoxic agents” (Bioorg Med Chem Lett, 2014).
